Measured values reported in PubChem BioAssay (NCI).
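The compound was tested at five concentrations on cells cultured in 96-well plates, with a 48-hour exposure period. Abbreviation: GI50, concentration required for 50% inhibition of growth. TGI is the concentration that stops growth completely.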

What was measured:
Assay in all cases: NCI anticancer screen, dose series, 48 h
786-0 renal = tested on: 786-0 renal
A498 renal = tested on: A498 renal
A549 NSCLC = tested on: A549 NSCLC
ACHN renal = tested on: ACHN renal
BT-549 breast = tested on: BT-549 breast
CAKI-1 renal = tested on: CAKI-1 renal
CCRF-CEM leukemia = tested on: CCRF-CEM leukemia
COLO 205 colon = tested on: COLO 205 colon
DU-145 prostate = tested on: DU-145 prostate
EKVX NSCLC = tested on: EKVX NSCLC
HCC-2998 colon = tested on: HCC-2998 colon
HCT-116 colon = tested on: HCT-116 colon
HCT-15 colon = tested on: HCT-15 colon
HL-60(TB) leukemia = tested on: HL-60(TB) leukemia
HOP-62 NSCLC = tested on: HOP-62 NSCLC
HOP-92 NSCLC = tested on: HOP-92 NSCLC
HS 578T breast = tested on: HS 578T breast
HT29 colon = tested on: HT29 colon
IGROV1 ovarian = tested on: IGROV1 ovarian
K-562 leukemia = tested on: K-562 leukemia
KM12 colon = tested on: KM12 colon
LOX IMVI melanoma = tested on: LOX IMVI melanoma
M14 melanoma = tested on: M14 melanoma
MALME-3M melanoma = tested on: MALME-3M melanoma
MCF7 breast = tested on: MCF7 breast
MDA-MB-231 breast = tested on: MDA-MB-231 breast
MOLT-4 leukemia = tested on: MOLT-4 leukemia
NCI-H226 lung = tested on: NCI-H226 lung
NCI-H23 lung = tested on: NCI-H23 lung
NCI-H460 lung = tested on: NCI-H460 lung
NCI-H522 lung = tested on: NCI-H522 lung
NCI/ADR-RES ovarian = tested on: NCI/ADR-RES ovarian
OVCAR-3 ovarian = tested on: OVCAR-3 ovarian
OVCAR-4 ovarian = tested on: OVCAR-4 ovarian
OVCAR-5 ovarian = tested on: OVCAR-5 ovarian
OVCAR-8 ovarian = tested on: OVCAR-8 ovarian
PC-3 prostate = tested on: PC-3 prostate
RPMI-8226 leukemia = tested on: RPMI-8226 leukemia
RXF 393 renal = tested on: RXF 393 renal
SF-268 CNS = tested on: SF-268 CNS
SF-295 CNS = tested on: SF-295 CNS
SF-539 CNS = tested on: SF-539 CNS
SK-MEL-2 melanoma = tested on: SK-MEL-2 melanoma
SK-MEL-28 melanoma = tested on: SK-MEL-28 melanoma
SK-MEL-5 melanoma = tested on: SK-MEL-5 melanoma
SK-OV-3 ovarian = tested on: SK-OV-3 ovarian
SN12C renal = tested on: SN12C renal
SNB-19 CNS = tested on: SNB-19 CNS
SNB-75 CNS = tested on: SNB-75 CNS
SR leukemia = tested on: SR leukemia
SW-620 colon = tested on: SW-620 colon
T-47D breast = tested on: T-47D breast
TK-10 renal = tested on: TK-10 renal
U251 CNS = tested on: U251 CNS
UACC-62 melanoma = tested on: UACC-62 melanoma
UO-31 renal = tested on: UO-31 renal

CCOC(=O)/C=C/C1=C(c2ccsc2)c2ccc(OC)cc2CC1
GI50 (786-0 renal): 511 nM | TGI (786-0 renal): 30.3 µM | GI50 (A498 renal): 512 nM | TGI (A498 renal): > 31.3 µM | GI50 (A549 NSCLC): 671 nM | TGI (A549 NSCLC): > 100 µM | GI50 (ACHN renal): 701 nM | TGI (ACHN renal): > 52.7 µM | GI50 (BT-549 breast): 787 nM | TGI (BT-549 breast): > 46.9 µM | GI50 (CAKI-1 renal): 387 nM | TGI (CAKI-1 renal): > 100 µM | GI50 (CCRF-CEM leukemia): 328 nM | GI50 (COLO 205 colon): 213 nM | TGI (COLO 205 colon): 1360 nM | GI50 (DU-145 prostate): 473 nM | TGI (DU-145 prostate): > 36.5 µM | GI50 (EKVX NSCLC): 6 µM | TGI (EKVX NSCLC): > 100 µM | GI50 (HCC-2998 colon): 4.57 µM | TGI (HCC-2998 colon): 26.7 µM | GI50 (HCT-116 colon): 376 nM | TGI (HCT-116 colon): > 39.4 µM | GI50 (HCT-15 colon): 222 nM | TGI (HCT-15 colon): > 20.2 µM | GI50 (HL-60(TB) leukemia): 206 nM | TGI (HL-60(TB) leukemia): 794 nM | GI50 (HOP-62 NSCLC): 599 nM | TGI (HOP-62 NSCLC): > 100 µM | GI50 (HOP-92 NSCLC): 2290 nM | TGI (HOP-92 NSCLC): > 55.4 µM | GI50 (HS 578T breast): 430 nM | TGI (HS 578T breast): > 38.7 µM | GI50 (HT29 colon): 275 nM | TGI (HT29 colon): > 41.4 µM | GI50 (IGROV1 ovarian): 6.26 µM | TGI (IGROV1 ovarian): > 100 µM | GI50 (K-562 leukemia): 59.2 nM | TGI (K-562 leukemia): 12.5 µM | GI50 (KM12 colon): 169 nM | TGI (KM12 colon): 15.4 µM | GI50 (LOX IMVI melanoma): 610 nM | TGI (LOX IMVI melanoma): > 50.1 µM | GI50 (M14 melanoma): 378 nM | TGI (M14 melanoma): > 100 µM | GI50 (MALME-3M melanoma): 205 nM | TGI (MALME-3M melanoma): > 100 µM | GI50 (MCF7 breast): 364 nM | TGI (MCF7 breast): 26.4 µM | GI50 (MDA-MB-231 breast): 924 nM | TGI (MDA-MB-231 breast): 19.7 µM | GI50 (MOLT-4 leukemia): 512 nM | TGI (MOLT-4 leukemia): 12.9 µM | GI50 (NCI-H226 lung): 769 nM | TGI (NCI-H226 lung): > 62.8 µM | GI50 (NCI-H23 lung): 525 nM | TGI (NCI-H23 lung): > 100 µM | GI50 (NCI-H460 lung): 2210 nM | TGI (NCI-H460 lung): 15.8 µM | GI50 (NCI-H522 lung): 260 nM | TGI (NCI-H522 lung): > 100 µM | GI50 (NCI/ADR-RES ovarian): 285 nM | GI50 (OVCAR-3 ovarian): 205 nM | TGI (OVCAR-3 ovarian): 686 nM | GI50 (OVCAR-4 ovarian): 2330 nM | TGI (OVCAR-4 ovarian): > 100 µM | GI50 (OVCAR-5 ovarian): 1660 nM | TGI (OVCAR-5 ovarian): > 100 µM | GI50 (OVCAR-8 ovarian): 661 nM | TGI (OVCAR-8 ovarian): > 41.9 µM | GI50 (PC-3 prostate): 202 nM | GI50 (RPMI-8226 leukemia): 292 nM | TGI (RPMI-8226 leukemia): 4.15 µM | GI50 (RXF 393 renal): 235 nM | TGI (RXF 393 renal): 5.02 µM | GI50 (SF-268 CNS): 656 nM | TGI (SF-268 CNS): 58.1 µM | GI50 (SF-295 CNS): 349 nM | TGI (SF-295 CNS): 20.6 µM | GI50 (SF-539 CNS): 388 nM | TGI (SF-539 CNS): 6.13 µM | GI50 (SK-MEL-2 melanoma): 3.66 µM | TGI (SK-MEL-2 melanoma): > 24.7 µM | GI50 (SK-MEL-28 melanoma): 982 nM | TGI (SK-MEL-28 melanoma): > 49.8 µM | GI50 (SK-MEL-5 melanoma): 195 nM | TGI (SK-MEL-5 melanoma): 11.2 µM | GI50 (SK-OV-3 ovarian): 359 nM | TGI (SK-OV-3 ovarian): > 85.6 µM | GI50 (SN12C renal): 837 nM | TGI (SN12C renal): > 23.9 µM | GI50 (SNB-19 CNS): 357 nM | TGI (SNB-19 CNS): > 100 µM | GI50 (SNB-75 CNS): 263 nM | TGI (SNB-75 CNS): > 100 µM | GI50 (SR leukemia): 156 nM | TGI (SR leukemia): 6.37 µM | GI50 (SW-620 colon): 349 nM | TGI (SW-620 colon): > 100 µM | GI50 (T-47D breast): 330 nM | TGI (T-47D breast): > 100 µM | GI50 (TK-10 renal): 716 nM | TGI (TK-10 renal): > 100 µM | GI50 (U251 CNS): 405 nM | TGI (U251 CNS): > 100 µM | GI50 (UACC-62 melanoma): 1790 nM | TGI (UACC-62 melanoma): 26.2 µM | GI50 (UO-31 renal): 7.6 µM | TGI (UO-31 renal): > 100 µM
